Test results taken from ChEMBL document CHEMBL1122276, “6-Chloro-2,3,4,5-tetrahydro-3-methyl-1H-3-benzazepine: a potent and selective antagonist of alpha 2-adrenoceptors” (J Med Chem, 1983).

Key:
[1] = species on record: Cavia porcellus; test: Concentration-related inhibition of response to sympathetic nerve stimulation in isolated guinea pig atrium mediated by alpha-2 receptors; format: functional; conditions: Cardiac atrium
[2] = species on record: Cavia porcellus; test: Dissociation constant (KB) for competitive inhibition of BHR 920 induced depression of neurotransmission in isolated guinea pig atrium; format: functional; conditions: Cardiac atrium
[3] = species on record: Canis familiaris; test: Effective concentration of 100% release of [3H]norepinephrine from electrically stimulated dog splenic arteries; format: functional, Canis lupus familiaris
[4] = species on record: Oryctolagus cuniculus; test: Ability to block the norepinephrine constrictor response in the rabbit ear artery in a competitive fashion; format: functional

Row | SMILES | EC50 [1] | Kb [2] | EC100 [3] | Kb [4]
1 | C=CCN1CCc2nc(N)sc2CC1 [TALIPEXOLE] | 100 nM |  |  | 
2 | CN1CCc2cccc(Cl)c2CC1.Cl |  | 17 nM | 210 nM | 900 nM
